Assay results from patent US6368812B1 (priority 1996, dated 2002).

Tests used:
rat GALR3 [1] = molecular target: T1, rat GALR3 (Rattus norvegicus, UniProt O88626); assay: porcine 125I-galanin binding, rat GALR3 transiently expressed in COS-7 cell membranes; design: which comprises the entire coding region of rat GALR3; expressed in transfected cells; host or cells: COS-7, transient; details: peptide displacement assays
T1 sequence (O88626 1-370): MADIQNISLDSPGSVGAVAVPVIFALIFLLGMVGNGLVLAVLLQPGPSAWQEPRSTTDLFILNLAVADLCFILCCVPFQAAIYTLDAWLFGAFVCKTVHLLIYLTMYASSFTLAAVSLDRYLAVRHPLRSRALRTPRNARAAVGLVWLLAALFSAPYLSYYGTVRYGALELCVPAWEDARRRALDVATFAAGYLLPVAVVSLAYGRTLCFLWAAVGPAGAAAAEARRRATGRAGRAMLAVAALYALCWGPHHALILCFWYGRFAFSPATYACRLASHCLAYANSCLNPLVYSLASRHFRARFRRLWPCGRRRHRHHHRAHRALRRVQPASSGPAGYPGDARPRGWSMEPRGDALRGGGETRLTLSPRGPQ
Method: Assays were conducted at room temperature for 120 minutes, and leupeptin, aprotonin and phosphoramidon were omitted from the rat GALR3 assay, while bacitracin was added to 0.1%.

human GALR3 [2] = molecular target: T2, human GALR3 (Homo sapiens, UniProt O60755); assay: voltage clamp currents in Xenopus oocytes expressing hGALR3 and GIRK1/GIRK4; assay type: cell-based
T2 construct: The full-length human GALR3 gene contains 1107 bp within its coding region, encoding for a predicted protein of 368 aa; expressed in transfected cells
T2 sequence (O60755 1-368): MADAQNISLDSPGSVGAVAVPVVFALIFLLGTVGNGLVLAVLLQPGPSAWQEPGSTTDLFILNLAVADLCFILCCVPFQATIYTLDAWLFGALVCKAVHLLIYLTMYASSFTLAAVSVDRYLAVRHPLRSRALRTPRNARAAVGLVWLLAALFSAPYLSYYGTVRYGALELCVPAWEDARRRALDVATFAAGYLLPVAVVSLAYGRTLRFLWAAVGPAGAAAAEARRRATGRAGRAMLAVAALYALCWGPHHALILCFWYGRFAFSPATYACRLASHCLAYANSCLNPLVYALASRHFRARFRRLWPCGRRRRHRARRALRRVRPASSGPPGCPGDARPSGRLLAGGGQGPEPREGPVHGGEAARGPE
Method: Activation of inwardly rectifying currents that are sensitive to 300 μM Ba^++ signifies GALR3 coupling to a Gαi or Gαo pathway in the oocytes.
Oocytes were isolated as described above, except that 3 mg/mL collagenase was used to defolliculate the oocytes.

rat GALR1 = molecular target: T3, rat GALR1 (Rattus norvegicus, UniProt Q62805); assay: biochemical; assay type: binding; details: Table 9; read-out: Ki (nM) Rat GalR1 CHO
T3 construct: expressed in transfected cells; host or cells: CHO
T3 sequence (Q62805 1-346): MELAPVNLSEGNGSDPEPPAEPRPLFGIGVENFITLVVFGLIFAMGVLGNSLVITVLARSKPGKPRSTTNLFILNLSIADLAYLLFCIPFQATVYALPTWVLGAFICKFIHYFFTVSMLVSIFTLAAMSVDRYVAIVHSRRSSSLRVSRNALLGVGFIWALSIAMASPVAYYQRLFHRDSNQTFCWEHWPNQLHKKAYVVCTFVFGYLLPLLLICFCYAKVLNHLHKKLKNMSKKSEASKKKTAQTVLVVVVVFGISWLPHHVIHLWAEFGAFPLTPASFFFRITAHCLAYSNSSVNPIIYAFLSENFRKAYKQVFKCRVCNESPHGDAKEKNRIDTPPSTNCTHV

human GALR3 [3] = molecular target: T2, human GALR3; assay: porcine 125I-galanin binding, LM(tk-) cells stably expressing human GALR3 (L-hGalR3-228)
rat GALR2 = molecular target: T4, rat GALR2 (Rattus norvegicus, UniProt O08726); assay: porcine 125I-galanin binding assay, Rat GALR2 LMTK #4
T4 construct: expressed in transfected cells
T4 sequence (O08726 1-372): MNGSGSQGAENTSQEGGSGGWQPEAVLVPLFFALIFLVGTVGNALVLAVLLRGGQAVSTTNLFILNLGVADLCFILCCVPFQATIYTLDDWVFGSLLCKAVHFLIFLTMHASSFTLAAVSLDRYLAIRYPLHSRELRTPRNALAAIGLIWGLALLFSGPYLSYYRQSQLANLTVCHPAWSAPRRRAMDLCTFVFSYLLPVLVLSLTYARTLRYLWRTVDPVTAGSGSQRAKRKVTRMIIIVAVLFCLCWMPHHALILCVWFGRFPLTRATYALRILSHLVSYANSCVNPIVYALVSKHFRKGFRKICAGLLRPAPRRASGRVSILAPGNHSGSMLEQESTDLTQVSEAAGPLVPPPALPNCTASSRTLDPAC

Hum GALR2 = molecular target: T5, Hum GALR2 (Homo sapiens, UniProt O43603); assay: porcine 125I-galanin binding assay, Hum GALR2 CHO
T5 construct: expressed in transfected cells; host or cells: CHO
T5 sequence (O43603 1-387): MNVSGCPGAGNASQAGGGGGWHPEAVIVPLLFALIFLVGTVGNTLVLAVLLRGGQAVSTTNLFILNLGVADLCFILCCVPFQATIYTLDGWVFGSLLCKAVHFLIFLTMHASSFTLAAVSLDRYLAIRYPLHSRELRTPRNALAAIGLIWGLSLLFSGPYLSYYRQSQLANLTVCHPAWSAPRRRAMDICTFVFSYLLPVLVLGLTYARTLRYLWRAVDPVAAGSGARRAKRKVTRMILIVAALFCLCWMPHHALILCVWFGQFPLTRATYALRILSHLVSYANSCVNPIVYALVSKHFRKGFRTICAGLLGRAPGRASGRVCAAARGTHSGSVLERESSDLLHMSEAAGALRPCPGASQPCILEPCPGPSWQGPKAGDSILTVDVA

[4] = food intake after intracerebroventricular injection in rats; details: injected i.c.v.
Method: Measurement of food intake was performed for 3 hours after injection, but other protocols may also be used. Saline was injected as a control, but it is understood that other vehicles may be required as controls for some peptides and compounds. […] A preferred anatomic location for injection is the hypothalamus, in particular, the paraventricular nucleus.

Hum GALR1 = molecular target: T6, Hum GALR1 (Homo sapiens, UniProt P47211); assay: porcine 125I-galanin binding assay, Hum GALR1 LM(tk-); details: Table 10
T6 sequence (P47211 1-349): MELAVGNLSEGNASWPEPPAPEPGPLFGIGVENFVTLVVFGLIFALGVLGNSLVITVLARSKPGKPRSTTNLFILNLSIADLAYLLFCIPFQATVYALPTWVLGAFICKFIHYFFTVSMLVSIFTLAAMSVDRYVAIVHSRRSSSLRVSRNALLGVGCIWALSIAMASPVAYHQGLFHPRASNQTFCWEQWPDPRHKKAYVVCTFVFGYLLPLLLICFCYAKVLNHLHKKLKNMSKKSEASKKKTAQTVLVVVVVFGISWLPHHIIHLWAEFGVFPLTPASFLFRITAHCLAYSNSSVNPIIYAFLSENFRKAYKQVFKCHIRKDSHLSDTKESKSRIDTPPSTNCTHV

rat GALR3 [5] = molecular target: T1, rat GALR3; assay: porcine 125I-galanin binding, membranes of stable cell line 293-rGalR3-105; design: which comprises the entire coding region of rat GALR3; expressed in transfected cells; details: Ki (nM) Rat GALR3 293 #105, Table 9
[6] = molecular target: T7, human α1A adrenergic receptor (Homo sapiens, UniProt P35348); assay type: cell-based
T7 construct: expressed in transfected cells; host or cells: Xenopus laevis oocytes, mRNA-injected
T7 sequence (P35348 1-466): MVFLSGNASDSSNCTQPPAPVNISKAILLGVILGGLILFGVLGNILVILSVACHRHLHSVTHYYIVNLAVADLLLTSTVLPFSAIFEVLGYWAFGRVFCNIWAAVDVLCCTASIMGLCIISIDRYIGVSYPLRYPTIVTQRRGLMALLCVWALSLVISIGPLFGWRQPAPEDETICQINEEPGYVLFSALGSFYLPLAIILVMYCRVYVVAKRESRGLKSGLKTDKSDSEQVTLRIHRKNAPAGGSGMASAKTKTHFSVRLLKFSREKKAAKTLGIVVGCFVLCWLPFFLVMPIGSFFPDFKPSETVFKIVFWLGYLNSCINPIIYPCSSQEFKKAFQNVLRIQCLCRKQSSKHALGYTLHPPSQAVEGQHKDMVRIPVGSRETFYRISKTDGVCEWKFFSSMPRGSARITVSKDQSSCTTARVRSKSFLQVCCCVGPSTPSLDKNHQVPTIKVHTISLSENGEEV
Method: FIG. 7 Pertussis toxin sensitivity of GalR3 and GalR1 stimulation of GIRK currents. […] . Number of observations appears in parenthesis below the x-axis. Apparent absence of a bar indicates an amplitude of 0 (no response above baseline).
5′-[…] […]-3′ (SEQ ID NO. 59). […] The new plasmid was designated M52.
Experiments were carried out at room temperature.

[7] = Ki (nM) Hum GALR3 LMTK− #8, Table 10

Row | Structure (SMILES) | binding affinity for rat GALR3 in words (rat GALR3 [1]) | EC50 (human GALR3 [2]) | agonist activity at human GALR3 in oocytes (human GALR3 [2]) | Ki (rat GALR1) | Ki (human GALR3 [3]; [7]) | Ki (human GALR3 [3]; Ki (nM) Human L-hGalR3-228, Table 5, stable) | Ki (human GALR3 [3]; human GALR3LM (tk−) Ki (nM), Table 8) | Ki (rat GALR2) | Ki (Hum GALR2) | feeding / food intake in words [4] | Ki (Hum GALR1) | Ki (rat GALR3 [5]) | Cl− currents in oocytes expressing α1a receptors [6]
1 | CC[C@H](C)[C@H](NC(=O)[C@H](C)NC(=O)[C@H](Cc1c[nH]cn1)NC(=O)[C@@H]1CCCN1C(=O)CNC(=O)[C@H](CC(C)C)NC(=O)[C@H](CC(C)C)NC(=O)[C@H](Cc1ccc(O)cc1)NC(=O)CNC(=O)[C@H](C)NC(=O)[C@H](CO)NC(=O)[C@H](CC(N)=O)NC(=O)[C@H](CC(C)C)NC(=O)[C@@H](NC(=O)[C@H](Cc1c[nH]c2ccccc12)NC(=O)CNC(=O)[C@H](CCCNC(=N)N)NC(=O)[C@H](CCCCN)NC(=O)[C@H](CCC(=O)O)NC(=O)[C@H](CCCCN)NC(=O)[C@@H](NC(=O)[C@@H]1CCCN1C(=O)[C@@H](N)CO)C(C)C)[C@@H](C)O)C(=O)N[C@@H](CC(=O)O)C(=O)N[C@@H](CC(N)=O)C(=O)N[C@@H](Cc1c[nH]cn1)C(=O)N[C@@H](CCCNC(=N)N)C(=O)N[C@@H](CO)C(=O)N[C@@H](Cc1ccccc1)C(=O)N[C@@H](Cc1c[nH]cn1)C(=O)N[C@@H](CC(=O)O)C(=O)N[C@@H](CCCCN)C(=O)N[C@@H](Cc1ccc(O)cc1)C(=O)NCC(=O)N[C@@H](CC(C)C)C(=O)N[C@@H](C)C(N)=O [galanin −7 to +29, (−7) to (+29) galanin, porcine] | affinity comparable to that for porcine galanin | 1910 nM | evoked agonist activity | 36.3 nM | 28.8 nM | 29 nM | 28.8 nM | 3.16 nM | 4.95 nM | induces feeding | 6.84 nM | – | –
2 | CC[C@H](C)[C@H](NC(=O)[C@H](C)NC(=O)[C@H](Cc1c[nH]cn1)NC(=O)[C@@H]1CCCN1C(=O)CNC(=O)[C@H](CC(C)C)NC(=O)[C@H](CC(C)C)NC(=O)[C@H](Cc1ccc(O)c(I)c1)NC(=O)CNC(=O)[C@H](C)NC(=O)[C@H](CO)NC(=O)[C@H](CC(N)=O)NC(=O)[C@H](CC(C)C)NC(=O)[C@@H](NC(=O)[C@@H](Cc1c[nH]c2ccccc12)NC(=O)CN)[C@@H](C)O)C(=O)N[C@@H](CC(=O)O)C(=O)N[C@@H](CC(N)=O)C(=O)N[C@@H](Cc1c[nH]cn1)C(=O)N[C@@H](CCCNC(=N)N)C(=O)N[C@@H](CO)C(=O)N[C@@H](Cc1ccccc1)C(=O)N[C@@H](Cc1c[nH]cn1)C(=O)N[C@@H](CC(=O)O)C(=O)N[C@@H](CCCCN)C(=O)N[C@@H](Cc1ccc(O)c(I)c1)C(=O)NCC(=O)N[C@@H](CC(C)C)C(=O)N[C@@H](C)C(N)=O [D-Trp2-(d-iodo-L-Tyr9)-(3-iodo-L-Tyr26)-galanin] | – | – | – | – | 933 nM | – | – | – | – | – | – | 182 nM | –
3 | CC[C@H](C)[C@H](NC(=O)[C@H](C)NC(=O)[C@H](Cc1c[nH]cn1)NC(=O)[C@@H]1CCCN1C(=O)CNC(=O)[C@H](CC(C)C)NC(=O)[C@H](CC(C)C)NC(=O)[C@H](Cc1ccc(O)cc1)NC(=O)CNC(=O)[C@H](C)NC(=O)[C@H](CO)NC(=O)[C@H](CC(N)=O)NC(=O)[C@H](CC(C)C)NC(=O)[C@@H](NC(=O)[C@H](Cc1c[nH]c2ccccc12)NC(=O)CNC(=O)[C@H](CCCNC(=N)N)NC(=O)[C@H](CCCCN)NC(=O)[C@H](CCC(=O)O)NC(=O)[C@H](CCCCN)NC(=O)[C@@H](NC(=O)[C@@H]1CCCN1C(=O)[C@H](CO)NC(=O)CNC(=O)[C@@H](N)CC(C)C)C(C)C)[C@@H](C)O)C(=O)N[C@@H](CC(=O)O)C(=O)N[C@@H](CC(N)=O)C(=O)N[C@@H](Cc1c[nH]cn1)C(=O)N[C@@H](CCCNC(=N)N)C(=O)N[C@@H](CO)C(=O)N[C@@H](Cc1ccccc1)C(=O)N[C@@H](Cc1c[nH]cn1)C(=O)N[C@@H](CC(=O)O)C(=O)N[C@@H](CCCCN)C(=O)N[C@@H](Cc1ccc(O)cc1)C(=O)NCC(=O)N[C@@H](CC(C)C)C(=O)N[C@@H](C)C(N)=O [(−)9 to (+)29 galanin, porcine] | – | – | – | 51.3 nM | 50.1 nM | – | – | 3.47 nM | 5.43 nM | – | 7.85 nM | 4.17 nM | –
4 | CNC[C@H](O)c1ccc(O)c(O)c1 [epinephrine] | – | – | – | – | – | – | – | – | – | – | – | – | stimulates transient Cl^− currents
